ChEMBL document CHEMBL1201862, “PubChem BioAssay data set” (2004)
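All cell lines were grown in 96-well plates and treated with compound for 48 hours. Here, GI50 denotes the concentration required for 50% inhibition of growth.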 Activity calls are given as the source filed them. No stated cut-off is given here; in the data, active = GI50 up to about 1.1 µM and inactive = higher.

What was measured:
Assay in all cases: inhibition of tumour cell growth, NCI panel, 48 h
A498 = tested on: A498
MDA-N = tested on: MDA-N
SF-295 = tested on: SF-295
786-0 = tested on: 786-0
HCC 2998 = tested on: HCC 2998
SK-MEL-5 = tested on: SK-MEL-5
SK-MEL-28 = tested on: SK-MEL-28
CCRF-CEM = tested on: CCRF-CEM
IGROV-1 = tested on: IGROV-1
SNB-19 = tested on: SNB-19
M14 = tested on: M14
PC-3 = tested on: PC-3
OVCAR-4 = tested on: OVCAR-4
TK-10 = tested on: TK-10
MOLT-4 = tested on: MOLT-4
SR = tested on: SR
NCI/ADR-RES = tested on: NCI/ADR-RES
HL-60 = tested on: HL-60
A549 = tested on: A549
UACC-257 = tested on: UACC-257

Structure (SMILES) | GI50 (A498) | GI50 (MDA-N) | GI50 (SF-295) | GI50 (786-0) | GI50 (HCC 2998) | GI50 (SK-MEL-5) | GI50 (SK-MEL-28) | GI50 (CCRF-CEM) | GI50 (IGROV-1) | GI50 (SNB-19) | GI50 (M14) | GI50 (PC-3) | GI50 (OVCAR-4) | GI50 (TK-10) | GI50 (MOLT-4) | GI50 (SR) | GI50 (NCI/ADR-RES) | GI50 (HL-60) | GI50 (A549) | GI50 (UACC-257)
CC(=O)OC1OC(c2ccoc2)C[C@@]12C1CCC3O[C@]3(C)[C@]1(C)C[C@H](OC(C)=O)[C@H]2C (some centres undefined) | > 75 µM (inactive) | > 75 µM (inactive) | > 75 µM (inactive) | > 75 µM (inactive) | > 75 µM (inactive) | > 75 µM (inactive) | > 75 µM (inactive) | 38.1 µM (inactive) | > 75 µM (inactive) | > 75 µM (inactive) | > 75 µM (inactive) | 44.7 µM (inactive) | 59.2 µM (inactive) | > 75 µM (inactive) | > 75 µM (inactive) | > 75 µM (inactive) | > 75 µM (inactive) | 42.9 µM (inactive) | > 75 µM (inactive) | > 75 µM (inactive)
N#Cc1c2ccc([N+](=O)[O-])cc2c(=O)n2c1[nH]c1ccc(C(F)(F)F)cc12 | 7.91 µM (inactive) | > 64.9 µM (inactive) | 14.4 µM (inactive) | 40.6 µM (inactive) | 15.2 µM (inactive) | 29.4 µM (inactive) | 24.2 µM (inactive) | 1.35 µM (inactive) | 34.2 µM (inactive) | 10.8 µM (inactive) | 24.5 µM (inactive) | > 38.2 µM (inactive) | 24.8 µM (inactive) | 99.5 µM (inactive) | 14.5 µM (inactive) | 4.07 µM (inactive) | 23.2 µM (inactive) | 0.254 µM (active) | > 55.8 µM (inactive) | > 88.7 µM (inactive)
C/C(=N/NC(=O)c1ccccc1Nc1ccccc1C(=O)N/N=C(\C)c1ccc(C)cc1)c1ccc(C)cc1 | > 100 µM (inactive) | > 100 µM (inactive) | 22.9 µM (inactive) | > 100 µM (inactive) | 10.9 µM (inactive) | 42.1 µM (inactive) | > 100 µM (inactive) | 25.2 µM (inactive) | > 100 µM (inactive) | > 100 µM (inactive) | 47 µM (inactive) | 41.7 µM (inactive) | 32.1 µM (inactive) | 18.6 µM (inactive) | 37.8 µM (inactive) | > 100 µM (inactive) | > 100 µM (inactive) | > 100 µM (inactive) | 46.3 µM (inactive) | > 100 µM (inactive)
N=C(N)C1CN(CCc2c[nH]c3ccccc23)C(=O)NC1=O (centres undefined) | > 100 µM (inactive) | > 100 µM (inactive) | > 100 µM (inactive) | > 100 µM (inactive) | > 100 µM (inactive) | > 100 µM (inactive) | > 100 µM (inactive) | > 100 µM (inactive) | > 100 µM (inactive) | > 100 µM (inactive) | > 100 µM (inactive) | > 100 µM (inactive) | > 100 µM (inactive) | > 100 µM (inactive) | > 100 µM (inactive) | > 100 µM (inactive) | > 100 µM (inactive) | > 100 µM (inactive) | > 100 µM (inactive) | > 100 µM (inactive)
O=[N+]([O-])c1cc(C2(N3CCCCC3)CCCCC2)sc1Br | 5.92 µM (inactive) | 6.41 µM (inactive) | 15.3 µM (inactive) | 3.94 µM (inactive) | 1.74 µM (inactive) | 5.04 µM (inactive) | 5.41 µM (inactive) | 2.08 µM (inactive) | 11.4 µM (inactive) | 14.1 µM (inactive) | 7.69 µM (inactive) | 4.06 µM (inactive) | 13 µM (inactive) | 2.39 µM (inactive) | 1.8 µM (inactive) | 2.99 µM (inactive) | 3.09 µM (inactive) | 2.34 µM (inactive) | 17.1 µM (inactive) | 2.04 µM (inactive)
Cc1c(C)c2c(c(N)c1C#N)C(=O)N(OS(=O)(=O)c1ccccc1)C2=O | > 100 µM (inactive) | 29.8 µM (inactive) | > 100 µM (inactive) | 16.4 µM (inactive) | 38.7 µM (inactive) | 44.9 µM (inactive) | 24.5 µM (inactive) | 21.5 µM (inactive) | 18.5 µM (inactive) | > 100 µM (inactive) | 19.5 µM (inactive) | 35.6 µM (inactive) | 21.2 µM (inactive) | 18 µM (inactive) | 21.4 µM (inactive) | 27 µM (inactive) | 22.6 µM (inactive) | 30.1 µM (inactive) | 15.6 µM (inactive) | 24.4 µM (inactive)
C=CCn1c(N)c(C#N)c(C#N)c1CCC | > 100 µM (inactive) | > 100 µM (inactive) | > 100 µM (inactive) | > 100 µM (inactive) | > 100 µM (inactive) | > 100 µM (inactive) |  | > 100 µM (inactive) | > 100 µM (inactive) | > 100 µM (inactive) | > 100 µM (inactive) | > 100 µM (inactive) | > 100 µM (inactive) | > 100 µM (inactive) | 43.2 µM (inactive) | 22.5 µM (inactive) | > 100 µM (inactive) | > 100 µM (inactive) | > 100 µM (inactive) | > 100 µM (inactive)
